In patent US12570642B2, “GLP-IR modulating compounds” (Gilead Sciences, Inc., priority 2021, dated 2026):

These molecules were tested against GLP-1R (Homo sapiens, UniProt P43220) (assay: GLP-1R Activation - cAMP Assay). Conditions: […]; each compound run on one of the two cAMP assays (Assay 1 or Assay 2, not specified).
GLP-1R, sequence (P43220 24-463): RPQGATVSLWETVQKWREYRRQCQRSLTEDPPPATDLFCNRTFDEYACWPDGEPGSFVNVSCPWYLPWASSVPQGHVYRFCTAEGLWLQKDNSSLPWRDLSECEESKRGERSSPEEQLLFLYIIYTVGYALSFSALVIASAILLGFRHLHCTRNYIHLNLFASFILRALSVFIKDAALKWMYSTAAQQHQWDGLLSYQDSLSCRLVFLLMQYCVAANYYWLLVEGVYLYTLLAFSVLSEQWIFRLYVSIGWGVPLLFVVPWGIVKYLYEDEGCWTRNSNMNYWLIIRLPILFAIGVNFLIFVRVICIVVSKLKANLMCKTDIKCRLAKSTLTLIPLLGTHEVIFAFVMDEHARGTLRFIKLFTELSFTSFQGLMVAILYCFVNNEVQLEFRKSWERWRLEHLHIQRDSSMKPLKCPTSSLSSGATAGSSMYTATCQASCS
Format: cell-based
Summary of the method: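 CHO cells stably expressing GLP-1R, plated at 1,000 cells/well overnight, then equilibrated 1 h in HBSS with 20 mM Hepes and 0.1% BSA. Agonist added as 10-point dose response for 30 min at 37 °C. cAMP measured by HTRF (Cisbio Gs Dynamic kit); EC50 from sigmoidal fit.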
Molecule `COC(=O)N1C[C@H](OC)[C@H](n2c(Cc3cc(F)c(-c4cccc(OCc5ccc(C#N)cc5F)n4)cc3F)nc3ccc(C(=O)O)cc32)C1` [Example 85] has an EC50 of 1440 nM. `COC(=O)N1C[C@@H](n2c(Cc3cc(F)c(-c4cccc(OCc5ccc(C#N)cc5F)n4)cc3F)nc3ccc(C(=O)O)cc32)[C@H](OC)C1` [Example 86, 2-(4-(6-((4-cyano-2-fluorobenzyl)oxy)pyridin-2-yl)-2,5-difluorobenzyl)-1-((3R,4R)-4-methoxy-1-(methoxycarbonyl)pyrrolidin-3-yl)-1H-benzo[d]imidazole-6-carboxylic Acid] showed an EC50 of 140 nM.

Same assay, conditions: cAMP increase in CHO cells stably expressing GLP-1R; each compound run on one of the two cAMP assays (Assay 1 or Assay 2, not specified)
In the case of `CC1(C)COCC1n1c(Cc2cc(F)c(-c3cccc(OCc4ccc(C#N)cc4F)n3)cc2F)nc2c(C#CC3CC3)cc(C(=O)O)cc21` (centres unmarked) [Example 48, 2-(4-(6-((4-cyano-2-fluorobenzyl)oxy)pyridin-2-yl)-2,5-difluorobenzyl)-4-(cyclopropylethynyl)-1-(4,4-dimethyltetrahydrofuran-3-yl)-1H-benzo[d]imidazole-6-carboxylic Acid], the EC50 is reported as 0.21 nM. For `COCCn1c(Cc2nc(N)c(-c3cccc(OCc4ccc(C#N)cc4F)n3)cc2F)nc2ccc(C(=O)O)cc21` [Example 49], the EC50 was 45.6 nM. In the case of `COCCn1c(Cc2c(F)cc(-c3cccc(OCc4ccc(C#N)cc4F)n3)c3nccn23)nc2ccc(C(=O)O)cc21` [Example 50], the EC50 is reported as 5.24 nM. In the case of `COCCn1c(C(F)c2cc(F)c(-c3cccc(OCc4ccc(C#N)cc4F)n3)cc2F)nc2ccc(C(=O)O)cc21` (centres unmarked) [Example 51], the EC50 is reported as 0.83 nM. `COCCn1c(C(F)(F)c2cc(F)c(-c3cccc(OCc4ccc(C#N)cc4F)n3)cc2F)nc2ccc(C(=O)O)cc21` [Example 52] was tested, and the EC50 was 21.3 nM. In the case of `COCCn1c(Cc2c(F)cc(-c3cccc(OCc4ccc(C#N)cc4F)n3)c3ncnn23)nc2ccc(C(=O)O)cc21` [Example 53], the EC50 is reported as 5.11 nM. `COCCn1c(C(CO)c2cc(F)c(-c3cccc(OCc4ccc(C#N)cc4F)n3)cc2F)nc2ccc(C(=O)O)cc21` (centres unmarked) [Example 54] gave an EC50 of 31.6 nM. `COCCn1c(Cc2cc(F)c(-c3cccc(OCc4ccc(C#N)cc4F)n3)cc2F)nc2c(-c3cncnc3)cc(C(=O)O)cc21` [Example 55] gave an EC50 of 25.8 nM. For `COCCn1c(Cc2cc(F)c(-c3cccc(OCc4ccc(C#N)cc4F)n3)cc2F)nc2c(-c3cnn(CCN4CCOCC4)c3)cc(C(=O)O)cc21` [Example 56, 2-(4-(6-((4-cyano-2-fluorobenzyl)oxy)pyridin-2-yl)-2,5-difluorobenzyl)-1-(2-methoxyethyl)-4-(1-(2-morpholinoethyl)-1H-pyrazol-4-yl)-1H-benzo[d]imidazole-6-carboxylic Acid], the EC50 was 903 nM. `Cn1cc(-c2cc(F)c(COc3cccc(-c4cc(F)c(Cc5nc6ccc(C(=O)O)cc6n5[C@H]5COCC5(C)C)cc4F)n3)cn2)cn1` [Example 57] was tested, and the EC50 was 2.06 nM. `CC1(C)COC[C@@H]1n1c(Cc2cc(F)c(-c3cccc(OCc4ccc(C#N)cc4F)n3)cc2F)nc2ccc(C(=O)O)cc21` [Example 59] showed an EC50 of 0.32 nM. Molecule `COCCn1c(Cc2cc(F)c(-c3cccc(OCc4ccc(-n5ccnc5)cc4F)n3)cc2F)nc2ccc(C(=O)O)cc21` [Example 61] has an EC50 of 0.83 nM. `N#Cc1ccc(COc2cccc(-c3cc(F)c(Cc4nc5ccc(C(=O)O)cc5n4C4CC45CC5)cc3F)n2)c(F)c1` (centres unmarked) [Example 62] gave an EC50 of 7.32 nM. `N#Cc1ccc(COc2cccc(-c3cc(F)c(Cc4nc5ccc(C(=O)O)cc5n4C4CCCC45CC5)cc3F)n2)c(F)c1` (centres unmarked) [Example 63, 2-(4-(6-((4-cyano-2-fluorobenzyl)oxy)pyridin-2-yl)-2,5-difluorobenzyl)-1-(spiro[2.4]heptan-4-yl)-1H-benzo[d]imidazole-6-carboxylic Acid] was tested, and the EC50 was 2.55 nM. `N#Cc1ccc(COc2cccc(-c3cc(F)c(Cc4nc5ccc(C(=O)O)cc5n4C4CCC45CC5)cc3F)n2)c(F)c1` (centres unmarked) [Example 64, 2-(4-(6-((4-cyano-2-fluorobenzyl)oxy)pyridin-2-yl)-2,5-difluorobenzyl)-1-(spiro[2.3]hexan-4-yl)-1H-benzo[d]imidazole-6-carboxylic Acid] showed an EC50 of 1.28 nM. `CO[C@@H]1CC[C@@H]1n1c(Cc2cc(F)c(-c3cccc(OCc4ccc(C#N)cc4F)n3)cc2F)nc2ccc(C(=O)O)cc21` [Example 65, 2-(4-(6-((4-cyano-2-fluorobenzyl)oxy)pyridin-2-yl)-2,5-difluorobenzyl)-1-((1S,2R)-2-methoxycyclobutyl)-1H-benzo[d]imidazole-6-carboxylic Acid] gave an EC50 of 5.05 nM. `N#Cc1ccc(COc2cccc(-c3cc(F)c(Cc4nc5ccc(C(=O)O)cc5n4C45COC(C4)C5)cc3F)n2)c(F)c1` [Example 66, 1-(2-oxabicyclo[2.1.1]hexan-4-yl)-2-(4-(6-((4-cyano-2-fluorobenzyl)oxy)pyridin-2-yl)-2,5-difluorobenzyl)-1H-benzo[d]imidazole-6-carboxylic Acid] gave an EC50 of 12.9 nM. `N#Cc1ccc(COc2cccc(-c3cc(F)c(Cc4nc5ccc(C(=O)O)cc5n4N4CCCC4)cc3F)n2)c(F)c1` [Example 67, 2-(4-(6-((4-cyano-2-fluorobenzyl)oxy)pyridin-2-yl)-2,5-difluorobenzyl)-1-(pyrrolidin-1-yl)-1H-benzo[d]imidazole-6-carboxylic Acid] was tested, and the EC50 was 7.25 nM. Work on `N#Cc1ccc(COc2cccc(-c3cc(F)c(Cc4nc5ccc(C(=O)O)cc5n4C4COC5CC4C5)cc3F)n2)c(F)c1` (centres unmarked) [Example 68, 1-(2-oxabicyclo[3.1.1]heptan-4-yl)-2-(4-(6-((4-cyano-2-fluorobenzyl)oxy)pyridin-2-yl)-2,5-difluorobenzyl)-1H-benzo[d]imidazole-6-carboxylic Acid] yielded an EC50 of 0.33 nM. `N#Cc1ccc(COc2cccc(-c3cc(F)c(Cc4nc5ccc(C(=O)O)cc5n4C45COCC4C5)cc3F)n2)c(F)c1` (centres unmarked) [Example 69, 1-(3-oxabicyclo[3.1.0]hexan-1-yl)-2-(4-(6-((4-cyano-2-fluorobenzyl)oxy)pyridin-2-yl)-2,5-difluorobenzyl)-1H-benzo[d]imidazole-6-carboxylic Acid] was tested, and the EC50 was 13.8 nM. `CO[C@H]1CCOC[C@H]1n1c(Cc2cc(F)c(-c3cccc(OCc4ccc(C#N)cc4F)n3)cc2F)nc2ccc(C(=O)O)cc21` [Example 70, 2-(4-(6-((4-cyano-2-fluorobenzyl)oxy)pyridin-2-yl)-2,5-difluorobenzyl)-1-((3R,4S)-4-methoxytetrahydro-2H-pyran-3-yl)-1H-benzo[d]imidazole-6-carboxylic Acid] showed an EC50 of 0.26 nM. `N#Cc1ccc(COc2cccc(-c3cc(F)c(Cc4nc5ccc(C(=O)O)cc5n4[C@H]4C[C@H]5CO[C@@H]4C5)cc3F)n2)c(F)c1` [Example 71, 1-((1R,4R,6S)-2-oxabicyclo[2.2.1]heptan-6-yl)-2-(4-(6-((4-cyano-2-fluorobenzyl)oxy)pyridin-2-yl)-2,5-difluorobenzyl)-1H-benzo[d]imidazole-6-carboxylic Acid] was tested, and the EC50 was 1.19 nM. `CC1(C)OCCC1n1c(Cc2cc(F)c(-c3cccc(OCc4ccc(C#N)cc4F)n3)cc2F)nc2ccc(C(=O)O)cc21` (centres unmarked) [Example 74, 2-(4-(6-((4-cyano-2-fluorobenzyl)oxy)pyridin-2-yl)-2,5-difluorobenzyl)-1-(2,2-dimethyltetrahydrofuran-3-yl)-1H-benzo[d]imidazole-6-carboxylic Acid] was tested, and the EC50 was 4.38 nM. For `CC1(C)COCC1n1c(Cc2cc(F)c(-c3cccc(OCc4ccc(C#N)cc4F)n3)cc2F)nc2ccc(C(=O)O)cc21` (centres unmarked) [Example 78, 2-(4-(6-((4-cyano-2-fluorobenzyl)oxy)pyridin-2-yl)-2,5-difluorobenzyl)-1-(4,4-dimethyltetrahydrofuran-3-yl)-1H-benzo[d]imidazole-6-carboxylic Acid], the EC50 was 0.36 nM. `N#Cc1ccc(COc2cccc(-c3cc(F)c(Cc4nc5ccc(C(=O)O)cc5n4[C@@H]4CO[C@H]5COC[C@H]54)cc3F)n2)c(F)c1` [Example 79, 2-(4-(6-((4-cyano-2-fluorobenzyl)oxy)pyridin-2-yl)-2,5-difluorobenzyl)-1-((3S,3aR,6aR)-hexahydrofuro[3,4-b]furan-3-yl)-1H-benzo[d]imidazole-6-carboxylic Acid] showed an EC50 of 5.62 nM. Work on `N#Cc1ccc(COc2cccc(-c3cc(F)c(Cc4nc5ccc(C(=O)O)cc5n4[C@@H]4CO[C@@H]5CNC[C@H]45)cc3F)n2)c(F)c1` [Example 80, 2-(4-(6-((4-cyano-2-fluorobenzyl)oxy)pyridin-2-yl)-2,5-difluorobenzyl)-1-((3S,3aR,6aS)-hexahydro-2H-furo[2,3-c]pyrrol-3-yl)-1H-benzo[d]imidazole-6-carboxylic Acid] yielded an EC50 of 4.91 nM. Work on `N#Cc1ccc(COc2cccc(-c3cc(F)c(Cc4nc5ccc(C(=O)O)cc5n4C4CCS(=O)(=O)C4)cc3F)n2)c(F)c1` (centres unmarked) [Example 81, 2-(4-(6-((4-cyano-2-fluorobenzyl)oxy)pyridin-2-yl)-2,5-difluorobenzyl)-1-(1,1-dioxidotetrahydrothiophen-3-yl)-1H-benzo[d]imidazole-6-carboxylic Acid] yielded an EC50 of 40.9 nM. Molecule `N#Cc1ccc(COc2cccc(-c3cc(F)c(Cc4nc5ccc(C(=O)O)cc5n4C4CCOCC45CC5)cc3F)n2)c(F)c1` (centres unmarked) [Example 82, 2-(4-(6-((4-cyano-2-fluorobenzyl)oxy)pyridin-2-yl)-2,5-difluorobenzyl)-1-(5-oxaspiro[2.5]octan-8-yl)-1H-benzo[d]imidazole-6-carboxylic Acid] has an EC50 of 1.6 nM. `CC1(C)COCCC1n1c(Cc2cc(F)c(-c3cccc(OCc4ccc(C#N)cc4F)n3)cc2F)nc2ccc(C(=O)O)cc21` (centres unmarked) [Example 83, 2-(4-(6-((4-cyano-2-fluorobenzyl)oxy)pyridin-2-yl)-2,5-difluorobenzyl)-1-(3,3-dimethyltetrahydro-2H-pyran-4-yl)-1H-benzo[d]imidazole-6-carboxylic Acid] gave an EC50 of 0.62 nM. Work on `COCCn1c(Cc2cc(F)c(-c3cccc(OCc4ccc(C#N)cc4F)n3)cc2F)nc2c(-c3ccccn3)cc(C(=O)O)cc21` [Example 84] yielded an EC50 of 1.34 nM.
